# In ChEMBL document CHEMBL1201862, “PubChem BioAssay data set” (2004):
# Active and inactive are the calls of the source.
# Experiments:
# Hexokinase = target: T1, Hexokinase (Trypanosoma brucei, UniProt Q38C41); assay: Confirmation assay for inhibitors of Trypanosoma brucei hexokinase 1-Analogue-first series. [Related pubchem assays (depositor defined):AID1430, AID1632, AID2516, AID2560, AID2579, AID2600, AID449725, AID492951]; format: functional
# T1 sequence (Q38C41 whole entry): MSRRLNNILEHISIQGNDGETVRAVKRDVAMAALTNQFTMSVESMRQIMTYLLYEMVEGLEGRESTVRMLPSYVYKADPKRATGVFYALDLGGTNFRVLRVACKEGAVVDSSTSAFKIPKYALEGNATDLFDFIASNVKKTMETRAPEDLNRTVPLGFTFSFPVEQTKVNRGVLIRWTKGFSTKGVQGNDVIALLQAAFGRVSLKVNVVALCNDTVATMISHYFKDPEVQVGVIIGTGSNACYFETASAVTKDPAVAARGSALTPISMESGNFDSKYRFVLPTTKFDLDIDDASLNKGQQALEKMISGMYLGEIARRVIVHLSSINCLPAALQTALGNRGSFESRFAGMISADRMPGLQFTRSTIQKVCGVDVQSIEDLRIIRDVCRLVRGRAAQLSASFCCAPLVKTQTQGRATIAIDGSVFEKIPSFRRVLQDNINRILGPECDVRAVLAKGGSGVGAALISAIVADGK
# [1] = viability loss in HeLa cells – cytotoxicity control for MgcRacGAP inhibitor project, dose response (AID 624300); format: functional
# [2] = target: T2, Rac GTPase-activating protein 1 (Homo sapiens, UniProt Q9H0H5); assay: blockers of MgcRacGAP-driven Rac1 GTP hydrolysis – biochemical, ADP Hunter fluorescence, primary and confirmatory, confirmation (AID 624330); format: functional
# T2 sequence (Q9H0H5 whole entry): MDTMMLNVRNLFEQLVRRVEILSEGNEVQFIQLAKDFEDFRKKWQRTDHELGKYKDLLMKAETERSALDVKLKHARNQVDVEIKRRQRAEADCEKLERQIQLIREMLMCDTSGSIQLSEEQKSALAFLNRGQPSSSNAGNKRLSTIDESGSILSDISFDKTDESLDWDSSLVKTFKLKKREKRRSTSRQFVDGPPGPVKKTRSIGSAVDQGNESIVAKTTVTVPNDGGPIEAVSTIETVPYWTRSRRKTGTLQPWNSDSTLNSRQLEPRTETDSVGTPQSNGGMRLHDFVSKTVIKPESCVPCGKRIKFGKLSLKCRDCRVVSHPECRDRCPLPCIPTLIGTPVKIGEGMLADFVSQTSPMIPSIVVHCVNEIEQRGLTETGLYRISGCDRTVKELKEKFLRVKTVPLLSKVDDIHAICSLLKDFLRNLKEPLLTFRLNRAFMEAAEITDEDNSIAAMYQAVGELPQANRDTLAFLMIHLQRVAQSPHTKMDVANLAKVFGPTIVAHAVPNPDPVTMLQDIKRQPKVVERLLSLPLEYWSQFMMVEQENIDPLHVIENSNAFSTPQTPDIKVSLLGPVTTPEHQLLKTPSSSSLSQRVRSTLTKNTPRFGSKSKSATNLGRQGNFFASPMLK
# [3] = target: Glucose-6-phosphate 1-dehydrogenase (Homo sapiens, UniProt P11413); assay: inhibition of Homo sapiens G6PD, dose series – biochemical, fluorescence, selectivity assay for P. falciparum G6PD inhibitor project, dose response (AID 504792); format: functional
# [4] = target: DNA dC->dU-editing enzyme APOBEC-3G (Homo sapiens, UniProt Q9HC16); assay: Dose Response confirmation of small molecule APOBEC3G DNA Deaminase Inhibitors via a fluorescence-based single-stranded DNA deaminase assay. [Related pubchem assays (depositor defined):AID493012, AID493028]; format: functional
# Large T antigen = Large T antigen (Simian virus 40, UniProt P03070); format: functional, Betapolyomavirus macacae;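 note: Confirmatory-stage PubChem screen for compounds that inhibit SV40 T antigen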
# [5] = target: DNA dC->dU-editing enzyme APOBEC-3A (Homo sapiens, UniProt P31941); assay: A3A deaminase inhibition for selectivity – biochemical, dose response (AID 504722); format: functional
# [6] = target: E3 ubiquitin-protein ligase XIAP (Homo sapiens, UniProt P98170); assay: Counter Screen using XIAP-Bir3 for Chemical Antagonists of Bir1/2 domains of IAP-family anti-apoptotic proteins. [Related pubchem assays (depositor defined):AID1018, AID1449, AID1514, AID1638, AID1749, AID1750, AID488957, AID488963]
# HEK293 [7] = assay: cells; conditions: Homo sapiens
# HEK293 [8] = assay: cells; format: functional, cell-based; conditions: Homo sapiens
# INS1 = assay: INS-1E survival protection against cytokine death – cell-based, luminescence, retest, dose response (AID 449756); format: functional; conditions: Rattus norvegicus;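 note: cell death triggered by IL-1 beta plus TNF-alpha plus IFN-gamma mixture; protective hits raise ATP signal compared with cytokine alone wells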
# HEK293 [9] = assay: NOD2 signaling inhibitors in MDP-stimulated cells, cell-based, uHTS, luminescence (AID 2001); format: functional; conditions: Homo sapiens
# HEK293 [10] = assay: inhibition of NOD1-driven NF-kB reporter – cell-based, luminescence, uHTS, primary screen (AID 1578); format: functional; conditions: Homo sapiens
# Tumor necrosis factor = Tumor necrosis factor (Homo sapiens, UniProt P01375); assay: analog potency on TNFa NF-kB signaling – cell-based, revised, SAR follow-up (AID 2337); format: functional
# [11] = target: T3, Nucleotide-binding oligomerization domain-containing protein 1 (Homo sapiens, UniProt Q9Y239); assay: blockers of NOD1 pathway activity – revised, SAR follow-up (AID 2333); format: functional
# T3 sequence (Q9Y239 whole entry): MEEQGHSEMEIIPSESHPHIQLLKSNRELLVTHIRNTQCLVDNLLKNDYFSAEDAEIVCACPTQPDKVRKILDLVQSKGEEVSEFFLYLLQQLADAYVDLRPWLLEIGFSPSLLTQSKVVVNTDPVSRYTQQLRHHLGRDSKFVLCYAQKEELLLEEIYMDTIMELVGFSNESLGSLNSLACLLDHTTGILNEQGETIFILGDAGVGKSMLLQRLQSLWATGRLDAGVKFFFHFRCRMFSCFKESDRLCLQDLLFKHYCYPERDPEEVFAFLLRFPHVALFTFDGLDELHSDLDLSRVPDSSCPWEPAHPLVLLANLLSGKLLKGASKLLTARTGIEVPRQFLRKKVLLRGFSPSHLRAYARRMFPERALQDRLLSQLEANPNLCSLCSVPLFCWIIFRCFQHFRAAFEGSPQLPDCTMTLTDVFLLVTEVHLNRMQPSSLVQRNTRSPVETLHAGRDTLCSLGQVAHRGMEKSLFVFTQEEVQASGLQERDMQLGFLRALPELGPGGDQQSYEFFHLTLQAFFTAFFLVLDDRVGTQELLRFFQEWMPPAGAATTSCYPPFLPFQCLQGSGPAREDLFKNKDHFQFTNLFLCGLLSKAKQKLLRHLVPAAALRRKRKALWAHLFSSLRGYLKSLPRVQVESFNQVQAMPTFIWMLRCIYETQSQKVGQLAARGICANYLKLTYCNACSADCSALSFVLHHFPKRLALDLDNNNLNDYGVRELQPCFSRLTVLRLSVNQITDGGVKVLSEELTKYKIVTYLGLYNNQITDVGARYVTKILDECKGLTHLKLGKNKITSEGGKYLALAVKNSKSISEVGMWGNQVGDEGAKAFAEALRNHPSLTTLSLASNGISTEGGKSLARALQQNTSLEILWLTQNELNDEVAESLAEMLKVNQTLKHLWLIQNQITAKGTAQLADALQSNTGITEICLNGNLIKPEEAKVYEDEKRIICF
# HEK293 [12] = assay: cells; format: functional, cell-based; conditions: Homo sapiens; remark: listed apart in the source
# Genome polyprotein = Genome polyprotein (dengue virus type 2, UniProt P29990); assay: flavivirus cap methylation enzyme inhibition – biochemical, confirmation dose response, primary screen (AID 588689); format: functional
# [13] = target: T4, Hepatocyte nuclear factor 4-alpha (Homo sapiens, UniProt P41235); format: functional, cell-based;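 note: biochemical luminescence-based dose-response counterscreen measuring inhibition of HNF4 dimerization, run alongside a screen for blockers of ABHD5–perilipin-5 interaction; split luciferase complementation of HNF4 fusion proteins in cell lysate measuring dimerization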
# T4 sequence (P41235 whole entry): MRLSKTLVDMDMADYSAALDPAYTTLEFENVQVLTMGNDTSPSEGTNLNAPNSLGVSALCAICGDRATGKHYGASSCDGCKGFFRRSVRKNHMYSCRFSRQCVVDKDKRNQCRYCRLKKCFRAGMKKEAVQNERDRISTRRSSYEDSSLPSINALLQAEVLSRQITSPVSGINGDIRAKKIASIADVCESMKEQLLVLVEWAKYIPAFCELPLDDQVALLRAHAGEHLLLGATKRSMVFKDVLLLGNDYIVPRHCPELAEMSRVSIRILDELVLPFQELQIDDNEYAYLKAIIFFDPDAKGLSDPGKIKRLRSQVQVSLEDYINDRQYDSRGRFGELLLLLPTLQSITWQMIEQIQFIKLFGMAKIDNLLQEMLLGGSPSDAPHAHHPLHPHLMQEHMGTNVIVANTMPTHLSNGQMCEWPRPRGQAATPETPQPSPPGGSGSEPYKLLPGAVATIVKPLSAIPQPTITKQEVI
# [14] = Luminescence Cell-Based Dose Retest to Confirm Inhibitors of Cancer Stem Cells. [Related pubchem assays (depositor defined):AID2717, AID2721]; format: functional; conditions: Homo sapiens
# [15] = target: G-protein coupled receptor 55 (Homo sapiens, UniProt Q9Y2T6); assay: selective activators of receptor GPR55 – imaging, U2OS cells, beta-arrestin-GFP redistribution, primary screen (AID 1961); format: functional
# [16] = target: Luciferin 4-monooxygenase (Photinus pyralis, UniProt P08659); assay: inhibition of purified Photinus pyralis luciferase – biochemical, luminescence, dose response (AID 1891)
# Estrogen receptor = target: T5, Estrogen receptor (Homo sapiens, UniProt P03372);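 note: potency for inhibiting coactivator peptide recruitment to the receptor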
# T5 sequence (P03372 whole entry): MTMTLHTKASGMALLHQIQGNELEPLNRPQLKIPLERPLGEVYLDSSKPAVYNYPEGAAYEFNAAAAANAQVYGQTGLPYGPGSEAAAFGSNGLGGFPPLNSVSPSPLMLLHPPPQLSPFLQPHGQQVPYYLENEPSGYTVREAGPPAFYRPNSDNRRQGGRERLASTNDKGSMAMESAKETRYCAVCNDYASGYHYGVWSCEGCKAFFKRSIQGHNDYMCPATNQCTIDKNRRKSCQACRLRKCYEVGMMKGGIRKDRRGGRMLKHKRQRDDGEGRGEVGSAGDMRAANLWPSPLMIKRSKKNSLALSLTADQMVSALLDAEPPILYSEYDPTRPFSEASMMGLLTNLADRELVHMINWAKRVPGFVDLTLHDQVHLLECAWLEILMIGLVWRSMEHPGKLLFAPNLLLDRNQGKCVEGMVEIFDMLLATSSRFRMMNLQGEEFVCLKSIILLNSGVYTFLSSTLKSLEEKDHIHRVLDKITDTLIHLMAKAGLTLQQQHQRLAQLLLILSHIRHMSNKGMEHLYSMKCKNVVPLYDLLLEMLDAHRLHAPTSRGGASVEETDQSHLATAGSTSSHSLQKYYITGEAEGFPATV
# [17] = Luminescence Cell-Based Dose Confirmation HTS to Identify Inhibitors of Platelet Dense Granule Release. [Related pubchem assays: 1663 (Primary HTS), 1678 (Summary of Project)]; format: functional
# DNA dC->dU-editing enzyme APOBEC-3G, sequence (Q9HC16 whole entry): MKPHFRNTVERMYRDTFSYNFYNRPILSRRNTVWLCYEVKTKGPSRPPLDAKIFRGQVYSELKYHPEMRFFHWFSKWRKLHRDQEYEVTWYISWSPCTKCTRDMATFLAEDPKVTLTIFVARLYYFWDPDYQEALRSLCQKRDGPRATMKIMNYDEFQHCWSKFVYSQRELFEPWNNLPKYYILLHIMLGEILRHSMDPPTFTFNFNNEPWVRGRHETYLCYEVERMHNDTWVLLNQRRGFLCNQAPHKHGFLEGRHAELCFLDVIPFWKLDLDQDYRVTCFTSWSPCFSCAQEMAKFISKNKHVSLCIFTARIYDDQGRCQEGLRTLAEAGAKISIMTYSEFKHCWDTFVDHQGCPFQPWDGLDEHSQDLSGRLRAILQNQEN
# DNA dC->dU-editing enzyme APOBEC-3A, sequence (P31941 whole entry): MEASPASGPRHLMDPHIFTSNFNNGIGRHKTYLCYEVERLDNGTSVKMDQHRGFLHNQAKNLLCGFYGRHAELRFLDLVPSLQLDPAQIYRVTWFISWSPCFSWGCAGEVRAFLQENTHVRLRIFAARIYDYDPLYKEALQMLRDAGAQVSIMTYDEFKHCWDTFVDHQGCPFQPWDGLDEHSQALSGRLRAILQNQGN
# Tumor necrosis factor, sequence (P01375 whole entry, the tested form may be a part): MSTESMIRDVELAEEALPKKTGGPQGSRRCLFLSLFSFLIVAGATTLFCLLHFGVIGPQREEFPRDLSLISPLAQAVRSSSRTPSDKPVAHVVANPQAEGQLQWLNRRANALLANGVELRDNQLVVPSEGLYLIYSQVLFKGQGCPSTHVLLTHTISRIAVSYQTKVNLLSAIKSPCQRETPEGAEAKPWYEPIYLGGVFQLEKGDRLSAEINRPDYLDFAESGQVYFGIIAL
# Glucose-6-phosphate 1-dehydrogenase, sequence (P11413 whole entry): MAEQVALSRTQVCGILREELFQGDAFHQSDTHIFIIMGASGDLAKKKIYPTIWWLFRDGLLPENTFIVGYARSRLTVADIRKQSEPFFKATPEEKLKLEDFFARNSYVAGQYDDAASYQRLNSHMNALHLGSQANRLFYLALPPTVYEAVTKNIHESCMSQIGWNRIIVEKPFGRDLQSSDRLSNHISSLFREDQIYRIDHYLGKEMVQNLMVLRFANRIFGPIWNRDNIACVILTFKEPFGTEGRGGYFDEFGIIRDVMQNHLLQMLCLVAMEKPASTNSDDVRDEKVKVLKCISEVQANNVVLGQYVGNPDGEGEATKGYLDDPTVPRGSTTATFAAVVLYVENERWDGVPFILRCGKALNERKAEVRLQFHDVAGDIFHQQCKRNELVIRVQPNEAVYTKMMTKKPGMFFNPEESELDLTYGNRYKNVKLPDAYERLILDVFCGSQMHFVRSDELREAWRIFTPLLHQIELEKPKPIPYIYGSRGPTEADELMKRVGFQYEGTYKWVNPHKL
# E3 ubiquitin-protein ligase XIAP, sequence (P98170 whole entry): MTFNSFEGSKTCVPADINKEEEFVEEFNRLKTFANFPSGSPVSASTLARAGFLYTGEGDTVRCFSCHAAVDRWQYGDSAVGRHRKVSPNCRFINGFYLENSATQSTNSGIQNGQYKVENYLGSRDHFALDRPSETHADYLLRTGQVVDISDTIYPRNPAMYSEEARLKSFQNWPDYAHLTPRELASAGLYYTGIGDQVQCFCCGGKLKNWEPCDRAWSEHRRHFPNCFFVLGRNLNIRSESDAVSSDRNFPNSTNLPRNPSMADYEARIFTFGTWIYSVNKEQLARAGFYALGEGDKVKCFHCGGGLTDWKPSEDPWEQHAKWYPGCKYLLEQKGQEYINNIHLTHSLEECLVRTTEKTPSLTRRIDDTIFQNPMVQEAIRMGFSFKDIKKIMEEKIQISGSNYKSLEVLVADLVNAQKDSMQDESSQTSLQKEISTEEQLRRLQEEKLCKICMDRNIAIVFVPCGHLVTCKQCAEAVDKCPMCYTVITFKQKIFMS
# G-protein coupled receptor 55, sequence (Q9Y2T6 whole entry): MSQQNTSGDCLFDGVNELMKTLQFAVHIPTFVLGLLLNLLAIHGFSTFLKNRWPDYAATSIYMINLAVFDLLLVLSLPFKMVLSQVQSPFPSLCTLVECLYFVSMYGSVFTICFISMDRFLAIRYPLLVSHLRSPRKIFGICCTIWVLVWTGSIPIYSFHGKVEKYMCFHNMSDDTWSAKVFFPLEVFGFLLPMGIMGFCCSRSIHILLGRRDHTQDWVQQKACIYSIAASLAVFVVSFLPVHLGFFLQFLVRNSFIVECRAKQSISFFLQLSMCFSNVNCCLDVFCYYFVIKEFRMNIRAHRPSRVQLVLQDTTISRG
# Genome polyprotein, sequence (P29990 2492-3391 limits assumed): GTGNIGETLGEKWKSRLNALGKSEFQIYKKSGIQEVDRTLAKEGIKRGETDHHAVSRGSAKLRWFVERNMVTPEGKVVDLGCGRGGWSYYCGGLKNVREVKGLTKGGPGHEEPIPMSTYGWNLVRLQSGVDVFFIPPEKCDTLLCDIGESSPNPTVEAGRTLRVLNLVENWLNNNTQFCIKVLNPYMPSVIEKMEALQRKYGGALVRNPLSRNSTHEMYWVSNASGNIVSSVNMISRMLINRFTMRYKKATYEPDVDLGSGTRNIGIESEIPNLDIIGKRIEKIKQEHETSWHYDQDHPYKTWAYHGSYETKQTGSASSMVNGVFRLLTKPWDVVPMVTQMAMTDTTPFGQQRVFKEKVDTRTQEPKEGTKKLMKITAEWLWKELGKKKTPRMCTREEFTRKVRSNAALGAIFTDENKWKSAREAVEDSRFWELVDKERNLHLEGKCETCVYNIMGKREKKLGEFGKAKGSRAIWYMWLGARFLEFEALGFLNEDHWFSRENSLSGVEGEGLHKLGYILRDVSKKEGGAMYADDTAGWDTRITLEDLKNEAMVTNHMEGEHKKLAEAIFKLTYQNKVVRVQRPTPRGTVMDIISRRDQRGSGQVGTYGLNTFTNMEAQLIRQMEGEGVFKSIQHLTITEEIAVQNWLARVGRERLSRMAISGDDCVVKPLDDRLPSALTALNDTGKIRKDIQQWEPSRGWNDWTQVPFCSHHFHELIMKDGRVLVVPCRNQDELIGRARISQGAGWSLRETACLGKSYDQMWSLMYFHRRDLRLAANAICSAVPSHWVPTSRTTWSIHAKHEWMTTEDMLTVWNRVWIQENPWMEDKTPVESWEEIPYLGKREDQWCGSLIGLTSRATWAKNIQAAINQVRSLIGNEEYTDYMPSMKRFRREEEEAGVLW
# Luciferin 4-monooxygenase, sequence (P08659 whole entry): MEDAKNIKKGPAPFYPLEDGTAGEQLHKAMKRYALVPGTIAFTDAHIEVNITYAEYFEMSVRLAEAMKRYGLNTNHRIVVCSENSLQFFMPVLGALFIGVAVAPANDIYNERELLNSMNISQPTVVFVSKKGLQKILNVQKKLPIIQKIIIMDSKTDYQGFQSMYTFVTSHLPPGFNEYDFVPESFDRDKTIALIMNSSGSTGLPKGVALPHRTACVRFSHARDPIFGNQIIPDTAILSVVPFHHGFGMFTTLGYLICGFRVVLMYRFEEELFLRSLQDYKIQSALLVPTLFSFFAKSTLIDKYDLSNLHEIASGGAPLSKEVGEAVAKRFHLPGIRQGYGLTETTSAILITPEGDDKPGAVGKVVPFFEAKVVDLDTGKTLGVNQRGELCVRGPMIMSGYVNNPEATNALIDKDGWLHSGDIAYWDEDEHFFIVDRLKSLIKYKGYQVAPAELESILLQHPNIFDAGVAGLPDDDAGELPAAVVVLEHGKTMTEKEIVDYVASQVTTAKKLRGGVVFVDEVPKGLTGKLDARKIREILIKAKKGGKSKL
# Large T antigen, sequence (P03070 whole entry): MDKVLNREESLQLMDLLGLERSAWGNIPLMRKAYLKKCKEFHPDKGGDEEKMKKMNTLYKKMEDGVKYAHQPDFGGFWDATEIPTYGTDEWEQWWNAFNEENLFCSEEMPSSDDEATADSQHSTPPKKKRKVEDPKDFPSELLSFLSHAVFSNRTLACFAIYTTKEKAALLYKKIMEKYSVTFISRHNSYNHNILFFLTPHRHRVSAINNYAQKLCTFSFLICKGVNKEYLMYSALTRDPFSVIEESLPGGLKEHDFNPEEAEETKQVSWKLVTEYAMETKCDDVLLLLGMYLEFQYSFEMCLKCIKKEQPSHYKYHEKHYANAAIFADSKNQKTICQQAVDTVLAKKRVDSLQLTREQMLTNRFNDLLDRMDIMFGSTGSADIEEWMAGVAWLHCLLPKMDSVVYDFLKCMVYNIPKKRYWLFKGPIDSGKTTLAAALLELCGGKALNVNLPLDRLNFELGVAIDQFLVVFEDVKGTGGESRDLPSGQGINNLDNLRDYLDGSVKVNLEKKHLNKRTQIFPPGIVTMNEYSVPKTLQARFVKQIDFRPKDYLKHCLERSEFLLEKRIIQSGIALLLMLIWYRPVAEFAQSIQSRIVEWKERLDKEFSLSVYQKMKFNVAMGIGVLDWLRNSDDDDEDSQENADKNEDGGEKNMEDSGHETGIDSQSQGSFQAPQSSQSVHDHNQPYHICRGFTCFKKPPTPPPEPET
compound,measurement,setting,value
O=c1c2ccccc2sn1-c1ccc(Cl)cc1Cl,IC50,Hexokinase,5.03 µM (active)
same,CC50,[1],74.7 µM (active)
same,IC50,[2],31.8 µM (active)
same,IC50,[3],17 µM (active)
C/N=c1/nc(-c2ccccc2)n(-c2ccccc2)s1,IC50,[4],15.9 µM (active)
same,IC50,Large T antigen,29.4 µM (active)
same,IC50,[5],> 100 µM (inactive)
same,IC50,[3],10.1 µM (active)
O=c1[nH]c(-c2ccc(F)cc2)nc2c1sc(=S)n2-c1ccccc1,IC50,[6],> 20 µM (inactive)
CCOC(=O)CSc1nnc(S)s1,IC50,[4],15 µM (active)
same,IC50,[5],> 100 µM (inactive)
O=c1c2ccccc2sn1-c1cccc(F)c1,IC50,Hexokinase,1.82 µM (active)
Sc1nnc(-c2ccccn2)n1/N=C/c1cccc(Cl)c1,IC50,[4],2.81 µM (active)
same,IC50,[5],> 100 µM (inactive)
COc1ccc(C(=O)Nc2cc(C(F)(F)F)ccc2C(=O)O)cc1,IC50,Hexokinase,17 µM (active)
COc1ccccc1CNc1ncnc2sccc12,IC50,HEK293 [7],> 20 µM (inactive)
same,IC50,HEK293 [8],14.8 µM (active)
same,AC50,INS1,4.26 µM (active)
same,IC50,HEK293 [9],8.12 µM (active)
same,EC50,HEK293 [10],1.69 µM (active)
same,IC50,Tumor necrosis factor,4.19 µM (active)
same,IC50,[11],3.08 µM (active)
same,IC50,HEK293 [12],4.4 µM (active)
Oc1nc(/C=C/c2ccc(Cl)cc2Cl)cc(C(F)(F)F)n1,IC50,HEK293 [7],11.9 µM (active)
same,IC50,HEK293 [8],> 20 µM (inactive)
same,IC50,HEK293 [9],5.9 µM (active)
same,IC50,Genome polyprotein,68.2 µM (active)
same,EC50,HEK293 [10],3.83 µM (active)
same,IC50,Tumor necrosis factor,3.75 µM (active)
same,IC50,[13],4.57 µM (active)
same,IC50,[11],1.74 µM (active)
same,AC50,[14],1.49 µM (active)
same,IC50,HEK293 [12],7.72 µM (active)
O=C(NCc1ccco1)c1nn2c(C(F)(F)F)cc(-c3cccs3)nc2c1Br,EC50,[15],> 32 µM (inactive)
same,EC50,[16],> 112 µM (not active)
same,IC50,Estrogen receptor,36.9 µM (not active)
same,EC50,[17],> 112 µM (not active)
